US20070282007A1, “TREATMENT OF PAIN DISORDERS WITH trans 4-(3,4-DICHLOROPHENYL)-1,2,3,4-TETRAHYDRO-1-NAPHTHALENAMINE AND ITS FORMAMIDE” (SEPRACOR INC., priority 2006, published 2007)

Legend:
[1] = biological target: T1, 5-HT1A (Homo sapiens, UniProt P08908); experiment: In vitro radioligand binding assay, 5-HT1A
T1 sequence (P08908 1-422): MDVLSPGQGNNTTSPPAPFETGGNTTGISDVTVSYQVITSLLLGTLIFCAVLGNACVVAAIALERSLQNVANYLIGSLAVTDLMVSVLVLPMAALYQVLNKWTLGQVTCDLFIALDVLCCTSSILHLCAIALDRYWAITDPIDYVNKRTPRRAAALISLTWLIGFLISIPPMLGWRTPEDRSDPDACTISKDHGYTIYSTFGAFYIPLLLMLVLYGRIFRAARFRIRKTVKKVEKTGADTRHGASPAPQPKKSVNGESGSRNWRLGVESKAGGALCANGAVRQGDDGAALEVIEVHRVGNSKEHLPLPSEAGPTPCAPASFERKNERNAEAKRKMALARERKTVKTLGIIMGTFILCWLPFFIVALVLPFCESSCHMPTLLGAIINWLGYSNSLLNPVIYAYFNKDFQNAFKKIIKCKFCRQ

[2] = biological target: T2, recombinant human Norepinephrine (NE) transporter (Homo sapiens, UniProt P23975); experiment: Functional uptake of NE into cells expressing recombinant human transporters; assay type: cell-based; conditions: read-out: IC50 inhibition of functional uptake in human transporters, Norepinephrine (NE)
T2 construct: expressed in transfected cells
T2 sequence (P23975 whole entry): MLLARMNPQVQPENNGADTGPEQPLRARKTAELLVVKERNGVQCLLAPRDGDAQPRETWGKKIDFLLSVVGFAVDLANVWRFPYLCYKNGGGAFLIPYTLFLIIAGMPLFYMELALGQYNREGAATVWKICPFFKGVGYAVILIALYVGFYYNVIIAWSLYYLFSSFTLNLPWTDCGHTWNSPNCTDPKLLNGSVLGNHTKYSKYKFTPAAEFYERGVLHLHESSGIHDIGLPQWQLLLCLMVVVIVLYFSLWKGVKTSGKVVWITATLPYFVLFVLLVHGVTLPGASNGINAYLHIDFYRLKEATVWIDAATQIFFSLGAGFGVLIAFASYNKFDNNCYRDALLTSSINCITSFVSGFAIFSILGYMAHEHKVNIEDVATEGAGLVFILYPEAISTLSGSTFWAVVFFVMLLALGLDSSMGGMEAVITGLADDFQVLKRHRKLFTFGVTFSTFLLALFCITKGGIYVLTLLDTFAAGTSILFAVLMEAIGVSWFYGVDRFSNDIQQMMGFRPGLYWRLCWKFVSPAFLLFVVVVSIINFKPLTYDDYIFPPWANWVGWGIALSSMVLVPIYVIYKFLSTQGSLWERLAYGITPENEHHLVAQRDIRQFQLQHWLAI

[3] = biological target: T3, Norepinephrine (NE) uptake (Rattus norvegicus, UniProt Q63380); experiment: Functional uptake of radiolabeled NE into synaptosomes from rat hypothalamus; assay type: biochemical
T3 construct: from tissue; host or cells: synaptosomes from rat hypothalamus
T3 sequence (Q63380 1-617): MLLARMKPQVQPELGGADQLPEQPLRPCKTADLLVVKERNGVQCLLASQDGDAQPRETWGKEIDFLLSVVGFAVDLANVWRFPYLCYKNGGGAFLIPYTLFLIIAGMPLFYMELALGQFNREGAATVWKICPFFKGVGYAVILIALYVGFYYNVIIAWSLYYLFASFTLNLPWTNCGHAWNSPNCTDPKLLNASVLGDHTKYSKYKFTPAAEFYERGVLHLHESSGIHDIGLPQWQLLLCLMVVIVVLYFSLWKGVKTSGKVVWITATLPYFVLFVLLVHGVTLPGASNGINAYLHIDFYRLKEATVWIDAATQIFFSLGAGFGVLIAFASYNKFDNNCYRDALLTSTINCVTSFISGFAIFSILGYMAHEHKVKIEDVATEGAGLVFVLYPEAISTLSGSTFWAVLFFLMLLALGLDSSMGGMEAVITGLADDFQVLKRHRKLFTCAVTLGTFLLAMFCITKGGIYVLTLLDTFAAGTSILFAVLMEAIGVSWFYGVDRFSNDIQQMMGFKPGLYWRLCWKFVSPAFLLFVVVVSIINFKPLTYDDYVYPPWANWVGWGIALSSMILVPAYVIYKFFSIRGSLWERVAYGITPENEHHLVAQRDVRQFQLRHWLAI
Experimental: The 5-HT and NE assays were performed essentially as outlined in Perovic S. & Müller W. E. G., Arzneim.-Forsch.

[4] = biological target: hERG channel (Homo sapiens, UniProt Q12809); experiment: hERG channel current in stably transfected HEK293 cells
Chain of hERG channel (Q12809 whole entry): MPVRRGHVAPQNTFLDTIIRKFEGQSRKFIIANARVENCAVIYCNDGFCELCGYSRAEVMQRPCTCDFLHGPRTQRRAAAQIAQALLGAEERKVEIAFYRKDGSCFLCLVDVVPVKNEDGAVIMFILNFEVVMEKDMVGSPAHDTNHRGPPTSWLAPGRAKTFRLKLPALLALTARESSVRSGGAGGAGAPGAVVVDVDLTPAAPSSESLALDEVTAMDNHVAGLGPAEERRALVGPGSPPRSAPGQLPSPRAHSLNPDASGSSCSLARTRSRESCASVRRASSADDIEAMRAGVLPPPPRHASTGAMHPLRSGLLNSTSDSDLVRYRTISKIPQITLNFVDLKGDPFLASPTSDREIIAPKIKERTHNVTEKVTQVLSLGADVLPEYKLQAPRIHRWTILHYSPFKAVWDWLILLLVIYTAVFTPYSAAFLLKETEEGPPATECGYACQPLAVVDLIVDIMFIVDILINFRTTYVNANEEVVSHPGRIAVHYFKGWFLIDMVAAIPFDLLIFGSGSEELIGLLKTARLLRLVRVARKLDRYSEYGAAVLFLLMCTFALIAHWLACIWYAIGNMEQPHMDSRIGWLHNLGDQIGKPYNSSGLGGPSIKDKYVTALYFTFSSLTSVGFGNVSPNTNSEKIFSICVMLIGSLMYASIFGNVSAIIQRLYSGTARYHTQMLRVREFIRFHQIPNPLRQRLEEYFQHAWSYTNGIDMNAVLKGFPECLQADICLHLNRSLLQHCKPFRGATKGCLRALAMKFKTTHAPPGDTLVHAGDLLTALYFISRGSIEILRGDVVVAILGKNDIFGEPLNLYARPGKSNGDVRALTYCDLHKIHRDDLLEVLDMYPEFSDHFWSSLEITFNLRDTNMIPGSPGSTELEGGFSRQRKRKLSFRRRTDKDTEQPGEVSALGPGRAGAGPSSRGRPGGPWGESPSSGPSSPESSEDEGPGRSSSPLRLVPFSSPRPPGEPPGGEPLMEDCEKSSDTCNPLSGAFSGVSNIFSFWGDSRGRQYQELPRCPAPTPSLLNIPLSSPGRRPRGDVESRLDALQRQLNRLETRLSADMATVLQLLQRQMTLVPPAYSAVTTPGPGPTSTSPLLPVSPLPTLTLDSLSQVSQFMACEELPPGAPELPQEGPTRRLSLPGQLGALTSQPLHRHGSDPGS
Experimental: Studies were conducted to determine effects on IKr, the rapidly activating delayed rectifier cardiac potassium current in the human heart. […] In this assay system, HERG channel current serves as a surrogate for IKr.

[5] = biological target: Dopamine (DA) uptake (Rattus norvegicus, UniProt P23977); experiment: biochemical
Chain of Dopamine (DA) uptake (P23977 whole entry): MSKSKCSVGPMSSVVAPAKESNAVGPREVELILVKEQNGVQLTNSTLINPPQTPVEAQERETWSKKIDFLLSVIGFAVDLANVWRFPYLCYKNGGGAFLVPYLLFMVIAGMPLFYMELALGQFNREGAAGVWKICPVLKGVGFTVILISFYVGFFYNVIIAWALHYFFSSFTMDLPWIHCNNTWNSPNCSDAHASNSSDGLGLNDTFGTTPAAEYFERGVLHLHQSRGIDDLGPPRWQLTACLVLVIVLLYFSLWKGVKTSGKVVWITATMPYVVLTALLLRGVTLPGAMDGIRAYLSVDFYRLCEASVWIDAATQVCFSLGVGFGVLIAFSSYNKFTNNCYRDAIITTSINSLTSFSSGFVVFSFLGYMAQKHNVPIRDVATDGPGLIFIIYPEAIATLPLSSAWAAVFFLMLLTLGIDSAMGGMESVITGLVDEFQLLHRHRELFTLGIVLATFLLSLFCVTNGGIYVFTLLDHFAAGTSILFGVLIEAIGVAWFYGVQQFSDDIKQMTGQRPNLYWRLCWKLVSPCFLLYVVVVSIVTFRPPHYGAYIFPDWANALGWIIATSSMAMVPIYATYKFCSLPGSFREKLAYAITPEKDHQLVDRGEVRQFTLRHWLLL

[6] = biological target: B2 (Homo sapiens, UniProt P30411); experiment: In vitro radioligand binding assay, B2
Chain of B2 (P30411 whole entry): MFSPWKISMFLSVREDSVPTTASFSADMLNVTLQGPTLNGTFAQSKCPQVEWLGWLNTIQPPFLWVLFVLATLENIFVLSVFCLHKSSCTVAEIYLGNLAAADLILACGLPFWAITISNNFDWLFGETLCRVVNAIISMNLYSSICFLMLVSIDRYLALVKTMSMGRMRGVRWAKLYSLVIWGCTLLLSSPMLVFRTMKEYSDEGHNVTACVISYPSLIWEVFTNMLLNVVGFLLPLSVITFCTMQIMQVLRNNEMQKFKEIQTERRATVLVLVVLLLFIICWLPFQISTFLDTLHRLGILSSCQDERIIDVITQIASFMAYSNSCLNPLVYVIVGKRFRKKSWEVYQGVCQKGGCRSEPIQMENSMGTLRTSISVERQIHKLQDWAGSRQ

[7] = biological target: T4, NE transporter (Homo sapiens, UniProt P23975); experiment: Radioligand binding assay, NE transporter ([3H]nisoxetine displacement); conditions: human recombinant; [3H]nisoxetine 0.3 nM; read-out: Ki, Norepinephrine (NE) transporter
T4 construct: expressed in transfected cells
T4 sequence (P23975 whole entry): as the sequence (P23975 whole entry) above
Experimental: The assays measured the affinity of the two compounds for transporters of the monoamines 5-HT, NE and DA. […] The transporters were human recombinant proteins expressed in mammalian cells. Binding to the 5-HT transporter was assessed by evaluating displacement of [^3H]paroxetine (0.1 nM). […] Binding to the NE transporter was assessed by evaluating displacement of [^3H]nisoxetine (0.3 nM).

[8] = system: Beagle dogs; experiment: Cardiovascular safety study in conscious telemetered dogs; assay type: in vivo; conditions: single oral doses 0.5, 1.5 and 5 mg/kg
Experimental: There were four animals/compound and each animal within the treatment group was exposed to the three doses (plus a empty capsule control), in a dose ramp-up manner with a minimum of 72 hours between doses.

[9] = biological target: D1 (Homo sapiens, UniProt P21728); experiment: In vitro radioligand binding assay, D1
Chain of D1 (P21728 whole entry): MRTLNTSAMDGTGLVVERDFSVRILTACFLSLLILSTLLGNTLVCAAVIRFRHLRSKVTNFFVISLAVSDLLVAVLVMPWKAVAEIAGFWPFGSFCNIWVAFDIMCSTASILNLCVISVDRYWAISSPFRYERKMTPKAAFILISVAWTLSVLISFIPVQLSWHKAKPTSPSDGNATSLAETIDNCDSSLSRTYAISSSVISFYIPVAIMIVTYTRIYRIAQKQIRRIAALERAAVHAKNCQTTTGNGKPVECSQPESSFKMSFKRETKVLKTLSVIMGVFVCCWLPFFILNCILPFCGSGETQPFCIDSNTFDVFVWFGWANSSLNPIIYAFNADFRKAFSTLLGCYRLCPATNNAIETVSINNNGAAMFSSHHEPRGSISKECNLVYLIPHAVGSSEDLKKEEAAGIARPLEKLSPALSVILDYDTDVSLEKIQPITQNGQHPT

[10] = biological target: Na^+ Channel Site 2; experiment: In vitro radioligand binding assay, Na+ channel site 2
[11] = system: Rat SNL Model; experiment: SNL model of neuropathic pain, mechanical allodynia testing; assay type: in vivo
Experimental: The animals were anesthetized with isoflurane, the left L5 transverse process was removed, and the L5 and L6 spinal nerves were tightly ligated with 6-0 silk suture. The wound was then closed with internal sutures and external staples. Wound clips were removed 10-11 days following surgery.
Animals were placed on a perforated metallic platform and allowed to acclimate to their surroundings for a minimum of 30 minutes before testing. The mean and standard error of the mean (SEM) were determined for each animal in each treatment group. Since this stimulus is normally not considered painful, significant injury-induced increases in responsiveness in this test are interpreted as a measure of mechanical allodynia. Mechanical allodynia was evaluated 14 days post-surgery.
Ten rats were studied per group and the tests were performed blind. (1R,4S)-4-(3,4-dichlorophenyl)-1,2,3,4-tetrahydro-1-naphthalenamine (P) was evaluated at 3 doses (5, 10 and 15 mg/kg), administered orally and compared with a vehicle control group. Gabapentin (100 mg/kg) and duloxetine (30 mg/kg) administered orally under the same experimental conditions, were used as comparator substances. Mechanical allodynia and hyperalgesia testing were conducted at baseline and 1, 2 and 4 hours after test article administration.

[12] = biological target: H2 (Homo sapiens, UniProt P25021); experiment: In vitro radioligand binding assay, H2; conditions: read-out: Ki, H2
Chain of H2 (P25021 whole entry): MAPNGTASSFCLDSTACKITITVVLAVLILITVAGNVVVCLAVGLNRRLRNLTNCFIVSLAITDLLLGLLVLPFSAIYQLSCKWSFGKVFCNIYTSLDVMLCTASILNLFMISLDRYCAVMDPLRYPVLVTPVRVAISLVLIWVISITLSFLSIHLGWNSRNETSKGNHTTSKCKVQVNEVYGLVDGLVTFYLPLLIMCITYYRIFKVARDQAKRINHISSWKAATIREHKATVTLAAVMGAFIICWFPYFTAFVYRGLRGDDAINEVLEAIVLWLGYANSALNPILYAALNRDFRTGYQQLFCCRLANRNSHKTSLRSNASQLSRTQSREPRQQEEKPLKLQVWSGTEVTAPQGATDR

[13] = biological target: 5-HT2A (Homo sapiens, UniProt P28223); experiment: In vitro radioligand binding assay, 5-HT2A
Chain of 5-HT2A (P28223 whole entry, species assumed): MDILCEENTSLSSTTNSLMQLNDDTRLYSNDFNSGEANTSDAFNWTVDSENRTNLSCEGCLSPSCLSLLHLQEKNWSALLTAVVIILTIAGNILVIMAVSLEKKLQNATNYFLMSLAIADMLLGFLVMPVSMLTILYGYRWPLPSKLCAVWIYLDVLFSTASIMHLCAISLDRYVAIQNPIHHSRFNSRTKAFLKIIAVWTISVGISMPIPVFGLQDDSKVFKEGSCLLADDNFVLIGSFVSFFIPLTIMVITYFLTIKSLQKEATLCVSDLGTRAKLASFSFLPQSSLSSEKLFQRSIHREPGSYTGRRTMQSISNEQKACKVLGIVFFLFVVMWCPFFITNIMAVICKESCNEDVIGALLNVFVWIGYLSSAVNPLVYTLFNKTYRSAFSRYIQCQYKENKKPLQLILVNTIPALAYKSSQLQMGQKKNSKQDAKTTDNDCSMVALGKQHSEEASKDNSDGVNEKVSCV

[14] = biological target: Ca^2+ Channel Verapamil Site; experiment: In vitro radioligand binding assay, Ca2+ channel verapamil site
[15] = system: rats; experiment: Formalin test, second test with Automated Nociception Analyzer; assay type: in vivo, rat; conditions: automated detection; for Number of Flinches, Acute Phase (Mean ± SEM): 0-10 minutes after formalin; for Number of Flinches, Late Phase (Mean ± SEM): 10-60 minutes after formalin
Experimental: In a second test, flinching behaviors were measured for 90 minutes after formalin injection using an automated detection system. […] This device used a magnetic detection system to measure paw movements, called “flinches”. Small metal bands were attached to the left hind paw of rats just before placement into individual circular test chambers 30 minutes prior to formalin injection. […] In addition to duloxetine, morphine (6 mg/kg, subcutaneously) was used as a comparator substance. Animals were treated with morphine 30 minutes prior to the formalin injection. To initiate the experiment, the rats were injected with formalin subcutaneously on the dorsal surface of the left hind paw and placed in the test chambers. The instrument subsequently recorded rapid foot movements counted in one minute epochs.

N[C@@H]1CC[C@@H](c2ccc(Cl)c(Cl)c2)c2ccccc21 [Compound P, (1R,4S)-trans 4-(3,4-dichlorophenyl)-1,2,3,4-tetrahydro-1-napthalenamine]
Ki [1]: 1100 nM
IC50 [2]: 15.6 nM
IC50 [3]: 9.6 nM
IC50 [4]: 800 nM
IC50 [5]: 6.4 nM
Ki [6]: 1500 nM
Ki [7]: 20 nM
effect on heart rate, blood pressure or ECG parameters (including QTc) [8]: no effect
Ki [9]: 6800 nM
Ki [10]: 1000 nM
Mechanical Allodynia, Paw Withdrawal Threshold (Mean ± SEM) ([11]; 5 mg/kg PO, 0 h (Baseline)): 3.1 ± 0.2 g
Mechanical Allodynia, Paw Withdrawal Threshold (Mean ± SEM) ([11]; 5 mg/kg PO, 1 h): 3.7 ± 0.3 g
Mechanical Allodynia, Paw Withdrawal Threshold (Mean ± SEM) ([11]; 5 mg/kg PO, 2 h): 3.2 ± 0.2 g
Mechanical Allodynia, Paw Withdrawal Threshold (Mean ± SEM) ([11]; 5 mg/kg PO, 4 h): 3.9 ± 0.2 g
Mechanical Allodynia, Paw Withdrawal Threshold (Mean ± SEM) ([11]; 10 mg/kg PO, 0 h (Baseline)): 2.8 ± 0.2 g
Mechanical Allodynia, Paw Withdrawal Threshold (Mean ± SEM) ([11]; 10 mg/kg PO, 1 h): 5.0 ± 0.3 g
Mechanical Allodynia, Paw Withdrawal Threshold (Mean ± SEM) ([11]; 10 mg/kg PO, 2 h): 5.7 ± 0.5 g
Mechanical Allodynia, Paw Withdrawal Threshold (Mean ± SEM) ([11]; 10 mg/kg PO, 4 h): 6.6 ± 0.4 g
Mechanical Allodynia, Paw Withdrawal Threshold (Mean ± SEM) ([11]; 15 mg/kg PO, 0 h (Baseline)): 2.9 ± 0.1 g
Mechanical Allodynia, Paw Withdrawal Threshold (Mean ± SEM) ([11]; 15 mg/kg PO, 1 h): 8.8 ± 0.6 g
Mechanical Allodynia, Paw Withdrawal Threshold (Mean ± SEM) ([11]; 15 mg/kg PO, 2 h): 7.5 ± 0.5 g
Mechanical Allodynia, Paw Withdrawal Threshold (Mean ± SEM) ([11]; 15 mg/kg PO, 4 h): 13.6 ± 0.3 g
Ki [12]: 4000 nM
Ki [13]: 720 nM
Ki [14]: 1000 nM
Number of Flinches, Acute Phase (Mean ± SEM) ([15]; 5 mg/kg PO): 194 ± 33
Number of Flinches, Late Phase (Mean ± SEM) ([15]; 5 mg/kg PO): 1263 ± 181
Number of Flinches, Acute Phase (Mean ± SEM) ([15]; 10 mg/kg PO): 143 ± 27
Number of Flinches, Late Phase (Mean ± SEM) ([15]; 10 mg/kg PO): 1679 ± 163
Number of Flinches, Acute Phase (Mean ± SEM) ([15]; 15 mg/kg PO): 212 ± 40
Number of Flinches, Late Phase (Mean ± SEM) ([15]; 15 mg/kg PO): 2236 ± 153
